Test results as given in ChEMBL document CHEMBL1140040, “Synthesis and cytotoxic activity of some novel polycyclic gamma-butyrolactones” (Bioorg Med Chem Lett, 2008).

What was measured:
DU-145 [1] = assay: Cytotoxicity against human DU145 cells assessed as age growth inhibition at 10 uM after 48 hrs by sulforhodamine B assay; type: functional; conditions: DU-145, 48 h, read-out: GI
HCT-15 [2] = assay: Antiproliferative activity against human HCT15 cells after 48 hrs by sulforhodamine B assay; type: functional, cell-based; conditions: HCT-15, 48 h
SK-OV-3 [3] = assay: Antiproliferative activity against human SKOV3 cells after 48 hrs by sulforhodamine B assay; type: functional, cell-based; conditions: SK-OV-3, 48 h
COLO 205 [4] = assay: Cytotoxicity against human COLO205 cells assessed as age growth inhibition at 100 uM after 48 hrs by sulforhodamine B assay; type: functional; conditions: COLO 205, 48 h, read-out: GI
A549 [5] = assay: Cytotoxicity against human A549 cells assessed as age growth inhibition at 10 uM after 48 hrs by sulforhodamine B assay; type: functional; conditions: A549, 48 h, read-out: GI
A549 [6] = assay: Cytotoxicity against human A549 cells assessed as age growth inhibition at 50 uM after 48 hrs by sulforhodamine B assay; type: functional; conditions: A549, 48 h, read-out: GI
HCT-15 [7] = assay: Cytotoxicity against human HCT15 cells assessed as age growth inhibition at 10 uM after 48 hrs by sulforhodamine B assay; type: functional; conditions: HCT-15, 48 h, read-out: GI
IGROV-1 [8] = assay: Cytotoxicity against human IGROV1 cells assessed as age growth inhibition at 100 uM after 48 hrs by sulforhodamine B assay; type: functional; conditions: IGROV-1, 48 h, read-out: GI
SF-295 [9] = assay: Cytotoxicity against human SF295 cells assessed as age growth inhibition at 100 uM after 48 hrs by sulforhodamine B assay; type: functional; conditions: SF-295, 48 h, read-out: GI
HCT-15 [10] = assay: Cytotoxicity against human HCT15 cells assessed as age growth inhibition at 100 uM after 48 hrs by sulforhodamine B assay; type: functional; conditions: HCT-15, 48 h, read-out: GI
SK-OV-3 [11] = assay: Cytotoxicity against human SKOV3 cells assessed as age growth inhibition at 100 uM after 48 hrs by sulforhodamine B assay; type: functional; conditions: SK-OV-3, 48 h, read-out: GI
A549 [12] = assay: Cytotoxicity against human A549 cells assessed as age growth inhibition at 100 uM after 48 hrs by sulforhodamine B assay; type: functional; conditions: A549, 48 h, read-out: GI
HOP-62 [13] = assay: Antiproliferative activity against human HOP62 cells after 48 hrs by sulforhodamine B assay; type: functional, cell-based; conditions: HOP-62, 48 h
SK-OV-3 [14] = assay: Cytotoxicity against human SKOV3 cells assessed as age growth inhibition at 50 uM after 48 hrs by sulforhodamine B assay; type: functional; conditions: SK-OV-3, 48 h, read-out: GI
SF-295 [15] = assay: Cytotoxicity against human SF295 cells assessed as age growth inhibition at 10 uM after 48 hrs by sulforhodamine B assay; type: functional; conditions: SF-295, 48 h, read-out: GI
DU-145 [16] = assay: Antiproliferative activity against human DU145 cells after 48 hrs by sulforhodamine B assay; type: functional, cell-based; conditions: DU-145, 48 h
DU-145 [17] = assay: Cytotoxicity against human DU145 cells assessed as age growth inhibition at 50 uM after 48 hrs by sulforhodamine B assay; type: functional; conditions: DU-145, 48 h, read-out: GI
SF-295 [18] = assay: Antiproliferative activity against human SF295 cells after 48 hrs by sulforhodamine B assay; type: functional, cell-based; conditions: SF-295, 48 h
A549 [19] = assay: Antiproliferative activity against human A549 cells after 48 hrs by sulforhodamine B assay; type: functional, cell-based; conditions: A549, 48 h
SF-295 [20] = assay: Cytotoxicity against human SF295 cells assessed as age growth inhibition at 50 uM after 48 hrs by sulforhodamine B assay; type: functional; conditions: SF-295, 48 h, read-out: GI
HEp-2 [21] = assay: Cytotoxicity against human HEP2 cells assessed as age growth inhibition at 50 uM after 48 hrs by sulforhodamine B assay; type: functional; conditions: HEp-2, 48 h, read-out: GI
HOP-62 [22] = assay: Cytotoxicity against human HOP62 cells assessed as age growth inhibition at 50 uM after 48 hrs by sulforhodamine B assay; type: functional; conditions: HOP-62, 48 h, read-out: GI
IGROV-1 [23] = assay: Antiproliferative activity against human IGROV1 cells after 48 hrs by sulforhodamine B assay; type: functional, cell-based; conditions: IGROV-1, 48 h
HOP-62 [24] = assay: Cytotoxicity against human HOP62 cells assessed as age growth inhibition at 100 uM after 48 hrs by sulforhodamine B assay; type: functional; conditions: HOP-62, 48 h, read-out: GI
IGROV-1 [25] = assay: Cytotoxicity against human IGROV1 cells assessed as age growth inhibition at 50 uM after 48 hrs by sulforhodamine B assay; type: functional; conditions: IGROV-1, 48 h, read-out: GI
HEp-2 [26] = assay: Antiproliferative activity against human HEP2 cells after 48 hrs by sulforhodamine B assay; type: functional, cell-based; conditions: HEp-2, 48 h
COLO 205 [27] = assay: Antiproliferative activity against human COLO205 cells after 48 hrs by sulforhodamine B assay; type: functional, cell-based; conditions: COLO 205, 48 h
COLO 205 [28] = assay: Cytotoxicity against human COLO205 cells assessed as age growth inhibition at 50 uM after 48 hrs by sulforhodamine B assay; type: functional; conditions: COLO 205, 48 h, read-out: GI
HCT-15 [29] = assay: Cytotoxicity against human HCT15 cells assessed as age growth inhibition at 50 uM after 48 hrs by sulforhodamine B assay; type: functional; conditions: HCT-15, 48 h, read-out: GI
SK-OV-3 [30] = assay: Cytotoxicity against human SKOV3 cells assessed as age growth inhibition at 10 uM after 48 hrs by sulforhodamine B assay; type: functional; conditions: SK-OV-3, 48 h, read-out: GI
HEp-2 [31] = assay: Cytotoxicity against human HEP2 cells assessed as age growth inhibition at 100 uM after 48 hrs by sulforhodamine B assay; type: functional; conditions: HEp-2, 48 h, read-out: GI
HEp-2 [32] = assay: Cytotoxicity against human HEP2 cells assessed as age growth inhibition at 10 uM after 48 hrs by sulforhodamine B assay; type: functional; conditions: HEp-2, 48 h, read-out: GI
COLO 205 [33] = assay: Cytotoxicity against human COLO205 cells assessed as age growth inhibition at 10 uM after 48 hrs by sulforhodamine B assay; type: functional; conditions: COLO 205, 48 h, read-out: GI
DU-145 [34] = assay: Cytotoxicity against human DU145 cells assessed as age growth inhibition at 100 uM after 48 hrs by sulforhodamine B assay; type: functional; conditions: DU-145, 48 h, read-out: GI
IGROV-1 [35] = assay: Cytotoxicity against human IGROV1 cells assessed as age growth inhibition at 10 uM after 48 hrs by sulforhodamine B assay; type: functional; conditions: IGROV-1, 48 h, read-out: GI
HOP-62 [36] = assay: Cytotoxicity against human HOP62 cells assessed as age growth inhibition at 10 uM after 48 hrs by sulforhodamine B assay; type: functional; conditions: HOP-62, 48 h, read-out: GI

IC50 (HCT-15 [2]) [µM] | IC50 (SK-OV-3 [3]) [µM] | IC50 (DU-145 [16]) [µM] | IC50 (A549 [19]) [µM] | Structure (SMILES) | inhibition of growth at 10 µM (DU-145 [1]) [%] | inhibition of growth at 100 µM (COLO 205 [4]) [%] | inhibition of growth at 10 µM (A549 [5]) [%] | inhibition of growth at 50 µM (A549 [6]) [%] | inhibition of growth at 10 µM (HCT-15 [7]) [%] | inhibition of growth at 100 µM (IGROV-1 [8]) [%] | inhibition of growth at 100 µM (SF-295 [9]) [%] | inhibition of growth at 100 µM (HCT-15 [10]) [%] | inhibition of growth at 100 µM (SK-OV-3 [11]) [%] | inhibition of growth at 100 µM (A549 [12]) [%] | IC50 (HOP-62 [13]) [µM] | inhibition of growth at 50 µM (SK-OV-3 [14]) [%] | inhibition of growth at 10 µM (SF-295 [15]) [%] | inhibition of growth at 50 µM (DU-145 [17]) [%] | IC50 (SF-295 [18]) [µM] | inhibition of growth at 50 µM (SF-295 [20]) [%] | further results
78 | > 100 | > 100 | > 100 | Cc1ccc([C@H]2OC(=O)[C@@H]3C=C4C(C)(C)CCC[C@]4(C)[C@H]23)cc1 | 6 | 34 | 13 | 29 | 11 | 40 | 21 | 55 | 30 | 42 | > 100 | 29 | 19 | 10 | > 100 | 20 | inhibition of growth at 50 µM (HEp-2 [21]): 25%; inhibition of growth at 50 µM (HOP-62 [22]): 13%; IC50 (IGROV-1 [23]): > 100 µM; inhibition of growth at 100 µM (HOP-62 [24]): 21%; inhibition of growth at 50 µM (IGROV-1 [25]): 29%; IC50 (HEp-2 [26]): > 100 µM; IC50 (COLO 205 [27]): > 100 µM; inhibition of growth at 50 µM (COLO 205 [28]): 22%; inhibition of growth at 50 µM (HCT-15 [29]): 44%; inhibition of growth at 10 µM (SK-OV-3 [30]): 19%; inhibition of growth at 100 µM (HEp-2 [31]): 27%; inhibition of growth at 10 µM (HEp-2 [32]): 9%; inhibition of growth at 10 µM (COLO 205 [33]): 10%; inhibition of growth at 100 µM (DU-145 [34]): 35%; inhibition of growth at 10 µM (IGROV-1 [35]): 0%; inhibition of growth at 10 µM (HOP-62 [36]): 2%
> 100 | > 100 | > 100 | > 100 | CC1(C)CCC[C@@]2(C)C1=C[C@H]1C(=O)O[C@H](c3ccc(Cl)cc3)[C@H]12 | 16 | 25 | 10 | 12 | 9 | 16 | 31 | 30 | 24 | 20 | > 100 | 14 | 20 | 30 | > 100 | 23 | inhibition of growth at 50 µM (HEp-2 [21]): 18%; inhibition of growth at 50 µM (HOP-62 [22]): 29%; IC50 (IGROV-1 [23]): > 100 µM; inhibition of growth at 100 µM (HOP-62 [24]): 38%; inhibition of growth at 50 µM (IGROV-1 [25]): 15%; IC50 (HEp-2 [26]): > 100 µM; IC50 (COLO 205 [27]): > 100 µM; inhibition of growth at 50 µM (COLO 205 [28]): 24%; inhibition of growth at 50 µM (HCT-15 [29]): 29%; inhibition of growth at 10 µM (SK-OV-3 [30]): 10%; inhibition of growth at 100 µM (HEp-2 [31]): 18%; inhibition of growth at 10 µM (HEp-2 [32]): 8%; inhibition of growth at 10 µM (COLO 205 [33]): 22%; inhibition of growth at 100 µM (DU-145 [34]): 35%; inhibition of growth at 10 µM (IGROV-1 [35]): 1%; inhibition of growth at 10 µM (HOP-62 [36]): 27%
 |  |  |  | CO[C@@]12[C@H](COC(N)=O)C3=C(C(=O)C(C)=C(N)C3=O)N1C[C@@H]1N[C@@H]12 [MITOMYCIN] | 63 |  | 55 |  |  |  |  |  |  |  |  |  |  |  |  |  | 
> 100 | > 100 | > 100 | > 100 | CC1(C)CCC[C@@]2(C)C1=C[C@H]1C(=O)O[C@H](c3ccc(C#N)cc3)[C@H]12 | 16 | 24 | 15 | 24 | 14 | 29 | 20 | 30 | 27 | 25 | > 100 | 25 | 12 | 22 | > 100 | 17 | inhibition of growth at 50 µM (HEp-2 [21]): 18%; inhibition of growth at 50 µM (HOP-62 [22]): 9%; IC50 (IGROV-1 [23]): > 100 µM; inhibition of growth at 100 µM (HOP-62 [24]): 18%; inhibition of growth at 50 µM (IGROV-1 [25]): 25%; IC50 (HEp-2 [26]): > 100 µM; IC50 (COLO 205 [27]): > 100 µM; inhibition of growth at 50 µM (COLO 205 [28]): 24%; inhibition of growth at 50 µM (HCT-15 [29]): 25%; inhibition of growth at 10 µM (SK-OV-3 [30]): 17%; inhibition of growth at 100 µM (HEp-2 [31]): 19%; inhibition of growth at 10 µM (HEp-2 [32]): 5%; inhibition of growth at 10 µM (COLO 205 [33]): 2%; inhibition of growth at 100 µM (DU-145 [34]): 25%; inhibition of growth at 10 µM (IGROV-1 [35]): 6%; inhibition of growth at 10 µM (HOP-62 [36]): 5%
